From US8927563B2, “Kinase inhibitor” (Respivert Limited, priority 2013, dated 2015)
Read-outs that look alike come from different tables or passages of the source. Each block holds one compound with its values, some of them ahead of it.

What was measured:
CYP3A4 = CYP3A4 (Homo sapiens (Human), UniProt P08684); assay: CYP3A4 inhibition with and without preincubation; type: in vitro ADME; details: for inhibition at 15 µM: human, read-out: 15 μM % Inh
Procedure: (§1) Assessment of certain in vitro ADME (absorption, distribution, metabolism, and excretion) parameters for Compound I was conducted by BioFocus (Saffron Walden, UK). The results reveal that Compound I is cleared rapidly by human hepatocytes and that it has a reduced liability for time-dependent cytochrome P450 inhibition.

CYP2C9 = CYP2C9 (Homo sapiens (Human), UniProt P11712); assay: CYP2C9 inhibition with and without preincubation; type: in vitro ADME; details: for inhibition at 5 μM: human, 5 μM (precipitation at 15 μM), read-out: % Inh, inhibition at 5 μM reported instead
CYP2C9, sequence (P11712 whole entry): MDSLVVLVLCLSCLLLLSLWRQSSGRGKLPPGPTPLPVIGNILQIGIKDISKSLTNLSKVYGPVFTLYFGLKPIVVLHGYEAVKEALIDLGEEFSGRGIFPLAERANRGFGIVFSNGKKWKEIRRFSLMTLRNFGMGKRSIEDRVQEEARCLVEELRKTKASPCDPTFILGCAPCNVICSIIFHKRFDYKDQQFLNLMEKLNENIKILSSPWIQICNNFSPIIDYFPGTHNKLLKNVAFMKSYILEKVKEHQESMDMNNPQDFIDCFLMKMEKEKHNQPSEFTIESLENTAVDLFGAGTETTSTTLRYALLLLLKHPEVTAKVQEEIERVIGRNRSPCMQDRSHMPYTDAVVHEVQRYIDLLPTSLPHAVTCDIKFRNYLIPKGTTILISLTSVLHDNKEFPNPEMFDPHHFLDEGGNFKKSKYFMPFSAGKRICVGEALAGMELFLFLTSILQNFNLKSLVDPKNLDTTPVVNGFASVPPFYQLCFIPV
Procedure: as §1

[1] = Hydrolytic stability study; type: physicochemical; details: DMSO and water (3:1), 1 mg/mL
Procedure: Chemical stability of Compound I was assessed in a mixture of DMSO and water (3:1) at a test compound concentration of 1 mg/mL
Sample Preparation • A 1.0 mg sample of test compound was dissolved in 750 μL of DMSO. Water (250 μL) was added slowly, ensuring no precipitation occurred.
Recording Stability • A 50 μL aliquot of the test solution was removed and analysed in duplicate by 5 μL HPLC injections. The peak area for the test compound was recorded following manual integration of the corresponding UV trace. • The test solution was heated to 60° C., with stirring, and 50 μL aliquots removed for HPLC analysis at 5 and 24 h timepoints.

non-mutant kinases = assay: KinomeScan selectivity scores; type: binding; details: for number of individual kinase hits, S(1): % Ctrl <1; for number of individual kinase hits, S(10): % Ctrl <10; for number of individual kinase hits, S(35): % Ctrl <35
Procedure: Kinase enzyme binding activities of compounds disclosed herein may be determined using a proprietary assay which measures active site-directed competition binding to an immobilized ligand (Fabian, M. A. et al., Nature Biotechnol., 2005, 23:329-336). These assays may be conducted by DiscoverX (formerly Ambit; San Diego, Calif.). The percentage inhibition produced by incubation with a test compound may be calculated relative to the non-inhibited control.

d-U937 cells = assay: Accumulation of β catenin in d-U937 cells; type: cell-based, human; details: 1 μg/mL; normalised to Reference compound at 1 μg/mL
Procedure: U937 cells, a human monocytic cell line, are differentiated into macrophage-type cells by incubation with PMA (100 ng/mL) for between 48 to 72 hr. The cells are then incubated with either final concentrations of test compound or vehicle for 18 hr. The induction of β-catenin by the test compound is stopped by replacing the media with 4% formaldehyde solution. Endogenous […] is neutralised by incubating with quenching buffer (100 μL, 0.1% sodium azide, 1% H2O2 in PBS with 0.05% Tween-20) for 20 min. The cells are washed with washing buffer (200 μL; PBS containing 0.05% Tween-20) and incubated with blocking solution (200 μL; 5% milk in PBS) for 1 hr, re-washed with washing buffer (200 μL) and then incubated overnight with anti-β-catenin antibody solution (50 μL) in 1% BSA/PBS (BD, Oxford, UK).
After washing with washing buffer (3×200 μL; PBS containing 0.05% Tween-20), cells are incubated with a HRP-conjugated secondary antibody solution (100 μL) in 1% BSA/PBS (Dako, Cambridge, UK) and the resultant signal is determined colourimetrically (OD: 450 nm with a reference wavelength of 655 nm) using TMB substrate (50 μL; R&D Systems, Abingdon, UK). This reaction is stopped by addition of 1N H2SO4 solution (50 μL). Cells are then washed with washing buffer and 2% crystal violet solution (50 μL) is applied for 30 min. After washing with washing buffer (3×200 μL), 1% SDS (100 μL) is added to each well and the plates are shaken lightly for 1 hr prior to measuring the absorbance at 595 nm (Varioskan® Flash, Thermo-Fisher Scientific).
The measured OD450-655 readings are corrected for cell number by dividing the OD450-655 by the OD595 readings.

CYP3A4, sequence (P08684 whole entry): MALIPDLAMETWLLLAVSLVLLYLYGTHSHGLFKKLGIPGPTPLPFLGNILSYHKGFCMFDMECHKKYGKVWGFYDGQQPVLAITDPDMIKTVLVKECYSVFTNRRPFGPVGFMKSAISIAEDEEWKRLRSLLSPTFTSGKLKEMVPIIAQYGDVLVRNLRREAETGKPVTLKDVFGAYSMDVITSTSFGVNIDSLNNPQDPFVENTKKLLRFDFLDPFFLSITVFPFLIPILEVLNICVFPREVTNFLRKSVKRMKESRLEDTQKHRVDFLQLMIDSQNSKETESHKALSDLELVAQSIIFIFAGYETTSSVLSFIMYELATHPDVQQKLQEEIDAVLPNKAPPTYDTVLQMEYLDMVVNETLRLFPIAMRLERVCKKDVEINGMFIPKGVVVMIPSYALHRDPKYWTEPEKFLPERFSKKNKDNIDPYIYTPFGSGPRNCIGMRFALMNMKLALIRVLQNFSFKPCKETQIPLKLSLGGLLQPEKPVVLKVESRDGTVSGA

IC50 (CYP3A4; CYP3A4, 0 min preincubation): > 15000 nM | IC50 (CYP3A4; CYP3A4, 30 min preincubation): 400 nM | inhibition at 15 µM (CYP3A4; CYP3A4, 0 min preincubation): 41% | inhibition at 15 µM (CYP3A4; CYP3A4, 30 min preincubation): 92% | IC50 (CYP2C9; CYP2C9, 0 min preincubation): > 5000 nM | IC50 (CYP2C9; CYP2C9, 30 min preincubation): 1400 nM | inhibition at 5 μM (CYP2C9; CYP2C9, 0 min preincubation): 31% | inhibition at 5 μM (CYP2C9; CYP2C9, 30 min preincubation): 66%
SMILES: C#CC(C)(C)c1cc(NC(=O)Nc2ccc(Oc3ccnc(Nc4cc(C)c5[nH]ncc5c4)n3)c3ccccc23)n(-c2ccc(C)cc2)n1 [Ref Cpd A, 1-(4-((2-((7-methyl-1H-indazol-5-yl)amino)pyrimidin-4-yl)oxy)-naphthalen-1-yl)-3-(3-(2-methylbut-3-yn-2-yl)-1-(p-tolyl)-1H-pyrazol-5-yl)urea, reference compound]

% Parent Remaining ([1]; 0 min): 100% | % Parent Remaining ([1]; 60° C., 300 min): 82% | % Parent Remaining ([1]; 60° C., 1440 min): 36%
SMILES: C#Cc1cc(Nc2nccc(Oc3ccc(NC(=O)Nc4cc(C(C)C)nn4-c4ccc(C)cc4)c4ccccc34)n2)cc(C(=O)NCCN2CCOCC2)c1 [Reference Compound B, 3-ethynyl-5-((4-((4-(3-(3-isopropyl-1-(p-toly)-1H-pyrazol-5-yl)ureido)naphthalen-1-yl)oxy)pyrimidin-2-yl)amino)-N-(2-morpholinoethyl)benzamide, reference compound]

SMILES: COCC(=O)Nc1cc(Oc2ccc(NC(=O)Nc3cc(C(C)(C)C)nn3-c3ccc(C)cc3)c3ccccc23)ccn1 [Reference Compound, N-(4-(4-(3-(3-tert-butyl-1-p-tolyl-1H-pyrazol-5-yl)ureido)naphthalen-1-yloxy)pyridin-2-yl)-2-methoxyacetamide, reference compound]
number of individual kinase hits, S(1) (non-mutant kinases; 50 nM): 7 | number of individual kinase hits, S(10) (non-mutant kinases; 50 nM): 32 | number of individual kinase hits, S(35) (non-mutant kinases; 50 nM): 67 | number of individual kinase hits, S(1) (non-mutant kinases; 500 nM): 45 | number of individual kinase hits, S(10) (non-mutant kinases; 500 nM): 105 | number of individual kinase hits, S(35) (non-mutant kinases; 500 nM): 143 | % β-catenin induction (d-U937 cells): 100%
